Here are results for one molecule from patent US8404752B2, “Method of treating traumatic brain injury” (Oxygen Biotherapeutics, Inc., priority 2008, dated 2013).

A short description of this data set: Physical properties and gas carrying capacity of perfluoro-tert-butylcyclohexane. It counts as physicochemical.

On to `FC(F)(F)C(C(F)(F)F)(C(F)(F)F)C1(F)C(F)(F)C(F)(F)C(F)(F)C(F)(F)C1(F)F` [perfluoro-tert-butylcyclohexane], for which the CO2 carried was 196 ml of CO2 per 100 ml of PFC, the lipophilicity result is “non-lipophilic”, the oxygen carried entry was “about 43 mL of oxygen per 100 ml of PFC” and the water solubility result is “non-water soluble”. For the same molecule, the “Vapor Pressure” value (@ 25° C.) is listed as 3.8 mmHg. Moreover, where the note is “@ 37° C.”, the “Vapor Pressure” value is reported as 4.4 mmHg.
